According to ChEMBL document CHEMBL1142122, “Extending the record of meroditerpenes from Cacospongia marine sponges” (2007):
Converted amounts (≈) assume the structure as drawn.

Key:
Type in all cases: functional
Bacillus subtilis = test: Antimicrobial activity against Bacillus subtilis
Escherichia coli = test: Antimicrobial activity against Escherichia coli
[1] = test system: Staphylococcus epidermidis; test: Antimicrobial activity against Staphylococcus epidermidis

MIC (Bacillus subtilis)	MIC (Escherichia coli)	MIC [1]	SMILES
> 400 µg/mL	> 400 µg/mL	2.5 µg/mL (≈ 6.09 µM)	C=C(C)CCC[C@@]1(C)CCC[C@@]2(C)[C@H](Cc3cc(C(=O)O)ccc3O)C(=C)CC[C@H]12
> 400 µg/mL	> 400 µg/mL	2.5 µg/mL (≈ 6.09 µM)	CC(C)=CCC[C@@]1(C)CCC[C@]2(C)[C@@H](Cc3cc(C(=O)O)ccc3O)C(C)=CC[C@@H]12 [JASPIC ACID]
> 400 µg/mL	> 400 µg/mL	5 µg/mL (≈ 13.1 µM)	CC1=C(CC/C(C)=C/CC/C(C)=C/Cc2cc(O)ccc2O)C(C)(C)CCC1 [JASPAQUINOL]
> 400 µg/mL	> 400 µg/mL	20 µg/mL (≈ 48.7 µM)	CC1=C(CC/C(C)=C/CC/C(C)=C/Cc2cc(C(=O)O)ccc2O)C(C)(C)CCC1 [CACOSPONGIN D]
